The values below come from PMC4314399 (Cell calcium, 2014).

In assay [1] the target is T1, Orai1 (Homo sapiens, UniProt Q13586+Q96D31). The assay is described as follows: fura-2 Ca2+ add-back. In kind it is cell-based.
The target of assay [2] is T1, Orai1. The assay is described as follows: fura-2 Ca2+ add-back. It is filed as cell-based. The source holds these as a separate data set.

For orientation: pIC50 means the IC50 on a negative log10 scale, so that one unit is a factor of ten.

pIC50: −log10 of the molar value. Where two headings read alike, the source gives them in different places.

T1 sequence (Q96D31 whole entry): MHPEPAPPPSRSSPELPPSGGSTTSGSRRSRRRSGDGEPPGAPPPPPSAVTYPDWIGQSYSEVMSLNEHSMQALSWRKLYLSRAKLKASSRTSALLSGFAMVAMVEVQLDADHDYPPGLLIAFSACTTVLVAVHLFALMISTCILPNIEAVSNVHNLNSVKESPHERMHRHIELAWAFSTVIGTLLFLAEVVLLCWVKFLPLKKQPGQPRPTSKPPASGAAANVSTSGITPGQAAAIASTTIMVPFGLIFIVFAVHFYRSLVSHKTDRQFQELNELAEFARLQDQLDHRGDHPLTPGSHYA
T1 sequence (Q13586 23-685): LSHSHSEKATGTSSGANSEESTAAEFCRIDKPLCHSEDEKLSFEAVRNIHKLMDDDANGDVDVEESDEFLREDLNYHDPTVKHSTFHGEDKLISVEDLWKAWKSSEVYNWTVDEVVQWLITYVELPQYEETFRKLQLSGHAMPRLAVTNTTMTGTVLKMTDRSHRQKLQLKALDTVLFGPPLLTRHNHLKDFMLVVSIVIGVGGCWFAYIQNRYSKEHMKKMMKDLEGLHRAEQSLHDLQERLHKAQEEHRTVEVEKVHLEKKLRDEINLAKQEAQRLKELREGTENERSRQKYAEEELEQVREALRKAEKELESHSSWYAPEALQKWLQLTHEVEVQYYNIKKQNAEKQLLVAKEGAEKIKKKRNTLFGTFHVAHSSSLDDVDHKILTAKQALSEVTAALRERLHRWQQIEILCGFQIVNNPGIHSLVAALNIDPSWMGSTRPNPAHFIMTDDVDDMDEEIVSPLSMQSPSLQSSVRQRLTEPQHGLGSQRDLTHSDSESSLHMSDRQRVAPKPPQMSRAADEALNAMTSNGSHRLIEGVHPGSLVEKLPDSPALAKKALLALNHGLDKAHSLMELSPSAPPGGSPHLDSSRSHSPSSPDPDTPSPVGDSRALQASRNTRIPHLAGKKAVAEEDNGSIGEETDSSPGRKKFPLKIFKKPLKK

As for DPB162-AE, the negative logarithm of the IC50 (pIC50) against Orai1 [1] was roughly 6.70.

DPB163-AE gave a pIC50 against Orai1 [2] of roughly 6.22.
